{
  "source": "patent US10968462B2",
  "about": "“Plants having increased tolerance to herbicides” (BASF AGRO B.V., priority 2013, dated 2021)",
  "tested_on": "transgenic T2 soybean plants",
  "assay": "Soybean greenhouse spray test, T2 plants at V2-V3 stage, injury 0-9 point scale 1 or 2 weeks after treatment (Tables 7C-7E)",
  "type": "in vivo, Glycine max",
  "details": "2 week after treatment",
  "procedure": "Soybean cv Jake was transformed as previously described by Siminszky et al., Phytochem Rev. 5:445-458 (2006). After regeneration, transformants were transplanted to soil in small pots, placed in growth chambers (16 hr day/8 hr night; 25° C. day/23° C. night; 65% relative humidity; 130-150 microE m-2 s-1) and subsequently tested for the presence of the T-DNA via Taqman analysis. After a few weeks, healthy, transgenic positive, single copy events were transplanted to larger pots and allowed to grow in the growth chamber. An optimal shoot for cutting was about 3-4 inches tall, with at least two nodes present. Each cutting was taken from the original transformant (mother plant) and dipped into rooting hormone powder (indole-3-butyric acid, IBA). The cutting was then placed in oasis wedges inside a bio-dome. The mother plant was taken to maturity in the greenhouse and harvested for seed. Wild type cuttings were also taken simultaneously to serve as negative controls. The cuttings were kept in the bio-dome for 5-7 days and then transplanted to 3 inch pots and then acclimated in the growth chamber for two more days. […] Other herbicides, such as AHAS (ALS—Acetolactate Synthase) inhibiting herbicides were also tested in a similar fashion for confirming cross resistance to other modes of action: Tritosulfuron, Florasulam, Metsulfuron, Rimsulfuron. Herbicide injury evaluations were taken at 2, 7, 14 and 21 days after treatment.\n• 0 No Injury • 1 Minimal injury, only a few patches of leaf injury or chlorosis. • 2 Minimal injury with slightly stronger chlorosis. Overall growth points remain undamaged. • 3 Slightly stronger injury on secondary leaf tissue, but primary leaf and growth points are still undamaged. • 4 Overall plant morphology is slightly different, some chlorosis and necrosis in secondary growth points and leaf tissue. Stems are intact. Regrowth is highly probable within 1 week. • 5 Overall plant morphology is clearly different, some chlorosis and necrosis on a few leaves and growth points, but primary growth point is intact. Stem tissue is still green. Regrowth is highly probably within 1 week. • 6 Strong injury can be seen on the new leaflet growth. Plant has a high probability to survive only through regrowth at different growth points. Most of the leaves are chlorotic/necrotic but stem tissue is still green. May have regrowth but with noticeable injured appearance. • 7 Most of the active growth points are necrotic. There may be a single growth point that could survive and may be partially chlorotic or green and partially necrotic. Two leaves may still be chlorotic with some green; the rest of the plant including stem is necrotic. • 8 Plant will likely die, and all growth points are necrotic. One leaf may still be chlorotic with some green. The remainder of the plant is necrotic. • 9 Plant is dead. • * Not tested",
  "data": [
    {"smiles": "COc1ncc(F)c2nc(S(=O)(=O)Nc3c(F)cccc3F)nn12", "note": "[Flurasulam]", "values": [
      {"measurement": "injury on a 0-9 point scale", "setting": "Bradi_1g07930.1 (Event 1), 0.156 g ai/ha", "result": 0.3},
      {"measurement": "injury on a 0-9 point scale", "setting": "Bradi_1g07930.1 (Event 1), 0.3125 g ai/ha", "result": 0.5},
      {"measurement": "injury on a 0-9 point scale", "setting": "Bradi_1g07930.1 (Event 1), 0.625 g ai/ha", "result": 2.5},
      {"measurement": "injury on a 0-9 point scale", "setting": "Bradi_1g07930.1 (Event 1), Flurasulam 1.25 g ai/ha", "result": 3.0},
      {"measurement": "injury on a 0-9 point scale", "setting": "Bradi_1g07930.1 (Event 1), Flurasulam 2.5 g ai/ha", "result": 1.7},
      {"measurement": "injury on a 0-9 point scale", "setting": "Bradi_1g07930.1 (Event 1), Flurasulam 5 g ai/ha", "result": 3.3},
      {"measurement": "injury on a 0-9 point scale", "setting": "R128A_F420V (Event 1), 0.156 g ai/ha", "result": 0.0},
      {"measurement": "injury on a 0-9 point scale", "setting": "R128A_F420V (Event 1), 0.3125 g ai/ha", "result": 3.3},
      {"measurement": "injury on a 0-9 point scale", "setting": "R128A_F420V (Event 1), 0.625 g ai/ha", "result": 3.5},
      {"measurement": "injury on a 0-9 point scale", "setting": "R128A_F420V (Event 1), Flurasulam 1.25 g ai/ha", "result": 4.5},
      {"measurement": "injury on a 0-9 point scale", "setting": "R128A_F420V (Event 1), Flurasulam 2.5 g ai/ha", "result": 6.8},
      {"measurement": "injury on a 0-9 point scale", "setting": "R128A_F420V (Event 1), Flurasulam 5 g ai/ha", "result": 6.5},
      {"measurement": "injury on a 0-9 point scale", "setting": "R128A_F420V (Event 2), 0.156 g ai/ha", "result": 1.0},
      {"measurement": "injury on a 0-9 point scale", "setting": "R128A_F420V (Event 2), 0.3125 g ai/ha", "result": 1.0},
      {"measurement": "injury on a 0-9 point scale", "setting": "R128A_F420V (Event 2), 0.625 g ai/ha", "result": 3.5},
      {"measurement": "injury on a 0-9 point scale", "setting": "R128A_F420V (Event 2), Flurasulam 1.25 g ai/ha", "result": 5.0},
      {"measurement": "injury on a 0-9 point scale", "setting": "R128A_F420V (Event 2), Flurasulam 2.5 g ai/ha", "result": 6.0},
      {"measurement": "injury on a 0-9 point scale", "setting": "R128A_F420V (Event 2), Flurasulam 5 g ai/ha", "result": 6.0},
      {"measurement": "injury on a 0-9 point scale", "setting": "R128A_F420V + Bradi_1g07930.1 (Event 1), 0.156 g ai/ha", "result": 1.5},
      {"measurement": "injury on a 0-9 point scale", "setting": "R128A_F420V + Bradi_1g07930.1 (Event 1), 0.3125 g ai/ha", "result": 2.3},
      {"measurement": "injury on a 0-9 point scale", "setting": "R128A_F420V + Bradi_1g07930.1 (Event 1), 0.625 g ai/ha", "result": 3.0},
      {"measurement": "injury on a 0-9 point scale", "setting": "R128A_F420V + Bradi_1g07930.1 (Event 1), Flurasulam 1.25 g ai/ha", "result": 3.5},
      {"measurement": "injury on a 0-9 point scale", "setting": "R128A_F420V + Bradi_1g07930.1 (Event 1), Flurasulam 2.5 g ai/ha", "result": 3.3},
      {"measurement": "injury on a 0-9 point scale", "setting": "R128A_F420V + Bradi_1g07930.1 (Event 1), Flurasulam 5 g ai/ha", "result": 2.5},
      {"measurement": "injury on a 0-9 point scale", "setting": "R128A_F420V + Bradi_1g07930.1 (Event 2), 0.156 g ai/ha", "result": 3.3},
      {"measurement": "injury on a 0-9 point scale", "setting": "R128A_F420V + Bradi_1g07930.1 (Event 2), 0.3125 g ai/ha", "result": 3.0},
      {"measurement": "injury on a 0-9 point scale", "setting": "R128A_F420V + Bradi_1g07930.1 (Event 2), 0.625 g ai/ha", "result": 3.0},
      {"measurement": "injury on a 0-9 point scale", "setting": "R128A_F420V + Bradi_1g07930.1 (Event 2), Flurasulam 1.25 g ai/ha", "result": 3.5},
      {"measurement": "injury on a 0-9 point scale", "setting": "R128A_F420V + Bradi_1g07930.1 (Event 2), Flurasulam 2.5 g ai/ha", "result": 3.0},
      {"measurement": "injury on a 0-9 point scale", "setting": "R128A_F420V + Bradi_1g07930.1 (Event 2), Flurasulam 5 g ai/ha", "result": 3.5},
      {"measurement": "injury on a 0-9 point scale", "setting": "wild type, 0.156 g ai/ha", "result": 0.3},
      {"measurement": "injury on a 0-9 point scale", "setting": "wild type, 0.3125 g ai/ha", "result": 3.0},
      {"measurement": "injury on a 0-9 point scale", "setting": "wild type, 0.625 g ai/ha", "result": 4.0},
      {"measurement": "injury on a 0-9 point scale", "setting": "wild type, Flurasulam 1.25 g ai/ha", "result": 5.5},
      {"measurement": "injury on a 0-9 point scale", "setting": "wild type, Flurasulam 2.5 g ai/ha", "result": 6.0},
      {"measurement": "injury on a 0-9 point scale", "setting": "wild type, Flurasulam 5 g ai/ha", "result": 7.5}
    ]},
    {"smiles": "COc1nc(C)nc(=NC(=O)NS(=O)(=O)c2ccccc2C(=O)O)[nH]1", "note": "[Metsulfuron]", "values": [
      {"measurement": "injury on a 0-9 point scale", "setting": "Bradi_1g07930.1 (Event 1), 1.05 g ai/ha", "result": 1.0},
      {"measurement": "injury on a 0-9 point scale", "setting": "Bradi_1g07930.1 (Event 1), 2.1 g ai/ha", "result": 0.7},
      {"measurement": "injury on a 0-9 point scale", "setting": "Bradi_1g07930.1 (Event 1), 4.2 g ai/ha", "result": 2.3},
      {"measurement": "injury on a 0-9 point scale", "setting": "Bradi_1g07930.1 (Event 1), 8.4 g ai/ha", "result": 3.3},
      {"measurement": "injury on a 0-9 point scale", "setting": "R128A_F420V (Event 1), 1.05 g ai/ha", "result": 8.0},
      {"measurement": "injury on a 0-9 point scale", "setting": "R128A_F420V (Event 1), 2.1 g ai/ha", "result": 8.0},
      {"measurement": "injury on a 0-9 point scale", "setting": "R128A_F420V (Event 1), 4.2 g ai/ha", "result": 8.0},
      {"measurement": "injury on a 0-9 point scale", "setting": "R128A_F420V (Event 1), 8.4 g ai/ha", "result": 8.7},
      {"measurement": "injury on a 0-9 point scale", "setting": "R128A_F420V (Event 2), 1.05 g ai/ha", "result": 8.0},
      {"measurement": "injury on a 0-9 point scale", "setting": "R128A_F420V (Event 2), 2.1 g ai/ha", "result": 9.0},
      {"measurement": "injury on a 0-9 point scale", "setting": "R128A_F420V (Event 2), 4.2 g ai/ha", "result": 8.7},
      {"measurement": "injury on a 0-9 point scale", "setting": "R128A_F420V (Event 2), 8.4 g ai/ha", "result": 9.0},
      {"measurement": "injury on a 0-9 point scale", "setting": "R128A_F420V + Bradi_1g07930.1 (Event 1), 1.05 g ai/ha", "result": 2.7},
      {"measurement": "injury on a 0-9 point scale", "setting": "R128A_F420V + Bradi_1g07930.1 (Event 1), 2.1 g ai/ha", "result": 3.0},
      {"measurement": "injury on a 0-9 point scale", "setting": "R128A_F420V + Bradi_1g07930.1 (Event 1), 4.2 g ai/ha", "result": 4.0},
      {"measurement": "injury on a 0-9 point scale", "setting": "R128A_F420V + Bradi_1g07930.1 (Event 1), 8.4 g ai/ha", "result": 4.3},
      {"measurement": "injury on a 0-9 point scale", "setting": "R128A_F420V + Bradi_1g07930.1 (Event 2), 1.05 g ai/ha", "result": 3.0},
      {"measurement": "injury on a 0-9 point scale", "setting": "R128A_F420V + Bradi_1g07930.1 (Event 2), 2.1 g ai/ha", "result": 3.7},
      {"measurement": "injury on a 0-9 point scale", "setting": "R128A_F420V + Bradi_1g07930.1 (Event 2), 4.2 g ai/ha", "result": 3.0},
      {"measurement": "injury on a 0-9 point scale", "setting": "R128A_F420V + Bradi_1g07930.1 (Event 2), 8.4 g ai/ha", "result": 3.0},
      {"measurement": "injury on a 0-9 point scale", "setting": "wild type, 1.05 g ai/ha", "result": 8.5},
      {"measurement": "injury on a 0-9 point scale", "setting": "wild type, 2.1 g ai/ha", "result": 8.3},
      {"measurement": "injury on a 0-9 point scale", "setting": "wild type, 4.2 g ai/ha", "result": 8.8},
      {"measurement": "injury on a 0-9 point scale", "setting": "wild type, 8.4 g ai/ha", "result": 8.5}
    ]}
  ]
}
